Like-named read-outs stand apart in the source and are kept apart here.
Columns and labels:
human TLR9 = human TLR9 (Homo sapiens (Human), UniProt Q9NR96); assay: TLR9 inhibition reporter assay (HEK-Blue SEAP); settings: read-out: TLR9 IC50;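 note: SEAP driven by an IFN-β minimal promoter with NF-κB and AP-1 sites, read after 22 h, compounds dosed 0.05 nM–50 µM, inhibition scaled between agonist plus DMSO and reference-inhibitor wells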
human TLR8 = human TLR8 (Homo sapiens (Human), UniProt Q9NR97); assay: TLR8 inhibition reporter assay (HEK-Blue SEAP); settings: read-out: TLR8 IC50;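 note: SEAP driven by IFN-β minimal promoter carrying NF-κB and AP-1 sites, compounds dosed 0.05 nM to 50 µM for 22 h, inhibition scaled between agonist-plus-DMSO and reference-inhibitor wells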
human TLR8, sequence (Q9NR97 27-1041): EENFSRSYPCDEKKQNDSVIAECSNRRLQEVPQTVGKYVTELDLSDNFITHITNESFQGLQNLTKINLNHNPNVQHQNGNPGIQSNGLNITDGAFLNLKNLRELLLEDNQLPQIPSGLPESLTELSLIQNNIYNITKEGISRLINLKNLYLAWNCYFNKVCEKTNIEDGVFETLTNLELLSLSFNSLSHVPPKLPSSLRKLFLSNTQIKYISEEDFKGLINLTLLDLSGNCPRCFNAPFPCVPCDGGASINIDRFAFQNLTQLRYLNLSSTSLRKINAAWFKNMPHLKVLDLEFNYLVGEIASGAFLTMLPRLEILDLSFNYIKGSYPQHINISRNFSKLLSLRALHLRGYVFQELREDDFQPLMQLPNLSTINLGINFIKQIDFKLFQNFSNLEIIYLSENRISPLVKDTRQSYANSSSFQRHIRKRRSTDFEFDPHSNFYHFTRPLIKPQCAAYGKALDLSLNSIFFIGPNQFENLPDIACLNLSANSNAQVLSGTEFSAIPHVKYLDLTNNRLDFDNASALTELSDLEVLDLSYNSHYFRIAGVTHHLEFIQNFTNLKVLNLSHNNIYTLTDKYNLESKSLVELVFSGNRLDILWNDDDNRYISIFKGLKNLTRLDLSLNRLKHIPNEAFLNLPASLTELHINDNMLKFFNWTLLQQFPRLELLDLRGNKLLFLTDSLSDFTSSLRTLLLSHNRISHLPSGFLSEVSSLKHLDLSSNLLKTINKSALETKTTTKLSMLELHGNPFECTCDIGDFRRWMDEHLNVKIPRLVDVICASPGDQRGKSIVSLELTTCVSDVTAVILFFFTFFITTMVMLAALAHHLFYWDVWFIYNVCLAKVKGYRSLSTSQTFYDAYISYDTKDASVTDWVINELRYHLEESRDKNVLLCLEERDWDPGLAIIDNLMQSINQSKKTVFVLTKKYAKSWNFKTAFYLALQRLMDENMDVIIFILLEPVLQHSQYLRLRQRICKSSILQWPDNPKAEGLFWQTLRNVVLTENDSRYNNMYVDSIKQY

human TLR7 = human TLR7 (Homo sapiens (Human), UniProt Q9NYK1); assay: TLR7 inhibition reporter assay (HEK-Blue SEAP); format: cell-based
human TLR7, sequence (Q9NYK1 27-1049): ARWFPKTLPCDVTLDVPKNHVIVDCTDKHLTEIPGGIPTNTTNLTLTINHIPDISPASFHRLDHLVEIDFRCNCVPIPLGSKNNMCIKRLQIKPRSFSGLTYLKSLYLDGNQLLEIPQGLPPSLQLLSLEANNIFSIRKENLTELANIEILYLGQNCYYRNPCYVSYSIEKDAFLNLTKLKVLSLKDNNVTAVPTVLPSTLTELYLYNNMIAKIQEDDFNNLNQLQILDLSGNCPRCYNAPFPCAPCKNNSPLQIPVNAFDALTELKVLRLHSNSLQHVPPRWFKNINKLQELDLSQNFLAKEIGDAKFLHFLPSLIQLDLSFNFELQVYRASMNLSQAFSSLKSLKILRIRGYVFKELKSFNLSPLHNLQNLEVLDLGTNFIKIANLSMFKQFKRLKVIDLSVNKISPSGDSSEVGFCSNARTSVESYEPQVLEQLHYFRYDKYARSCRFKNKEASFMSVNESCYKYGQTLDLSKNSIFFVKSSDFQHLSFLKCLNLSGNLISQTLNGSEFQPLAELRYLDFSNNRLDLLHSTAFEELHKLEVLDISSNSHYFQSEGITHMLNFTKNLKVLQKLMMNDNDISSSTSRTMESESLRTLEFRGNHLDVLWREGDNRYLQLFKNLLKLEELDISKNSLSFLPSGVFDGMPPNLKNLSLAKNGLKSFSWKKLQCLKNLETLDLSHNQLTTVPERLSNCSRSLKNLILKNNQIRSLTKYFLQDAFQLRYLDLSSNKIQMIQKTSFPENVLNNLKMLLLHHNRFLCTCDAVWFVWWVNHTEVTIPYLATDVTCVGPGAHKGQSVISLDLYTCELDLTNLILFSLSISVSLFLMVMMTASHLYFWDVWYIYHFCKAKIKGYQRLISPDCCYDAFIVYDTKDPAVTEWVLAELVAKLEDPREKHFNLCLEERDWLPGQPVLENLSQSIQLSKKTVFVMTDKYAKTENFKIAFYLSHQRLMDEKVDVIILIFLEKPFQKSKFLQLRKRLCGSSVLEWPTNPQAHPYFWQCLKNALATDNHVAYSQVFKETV

[1] = HEK-Blue human TLR9 cells, ODN2006 5 nM
[2] = HEK-Blue human TLR8 cells, R848 15.9 μM
[3] = HEK-Blue human TLR7 cells, gardiquimod 7.5 μM
[4] = HEK-Blue cells overexpressing human TLR9, SEAP reporter, ODN2006 5 nM
[5] = HEK-Blue cells overexpressing human TLR8, SEAP reporter, R848 15.9 μM
[6] = HEK-Blue cells overexpressing human TLR7, SEAP reporter, gardiquimod 7.5 μM
[7] = HEK-Blue cells overexpressing human TLR9, ODN2006 5 nM stimulation, SEAP reporter
[8] = HEK-Blue cells overexpressing human TLR8, R848 15.9 μM stimulation, SEAP reporter
[9] = HEK-Blue cells overexpressing human TLR7, gardiquimod 7.5 μM stimulation, SEAP reporter

human TLR9, sequence (Q9NR96 26-1032): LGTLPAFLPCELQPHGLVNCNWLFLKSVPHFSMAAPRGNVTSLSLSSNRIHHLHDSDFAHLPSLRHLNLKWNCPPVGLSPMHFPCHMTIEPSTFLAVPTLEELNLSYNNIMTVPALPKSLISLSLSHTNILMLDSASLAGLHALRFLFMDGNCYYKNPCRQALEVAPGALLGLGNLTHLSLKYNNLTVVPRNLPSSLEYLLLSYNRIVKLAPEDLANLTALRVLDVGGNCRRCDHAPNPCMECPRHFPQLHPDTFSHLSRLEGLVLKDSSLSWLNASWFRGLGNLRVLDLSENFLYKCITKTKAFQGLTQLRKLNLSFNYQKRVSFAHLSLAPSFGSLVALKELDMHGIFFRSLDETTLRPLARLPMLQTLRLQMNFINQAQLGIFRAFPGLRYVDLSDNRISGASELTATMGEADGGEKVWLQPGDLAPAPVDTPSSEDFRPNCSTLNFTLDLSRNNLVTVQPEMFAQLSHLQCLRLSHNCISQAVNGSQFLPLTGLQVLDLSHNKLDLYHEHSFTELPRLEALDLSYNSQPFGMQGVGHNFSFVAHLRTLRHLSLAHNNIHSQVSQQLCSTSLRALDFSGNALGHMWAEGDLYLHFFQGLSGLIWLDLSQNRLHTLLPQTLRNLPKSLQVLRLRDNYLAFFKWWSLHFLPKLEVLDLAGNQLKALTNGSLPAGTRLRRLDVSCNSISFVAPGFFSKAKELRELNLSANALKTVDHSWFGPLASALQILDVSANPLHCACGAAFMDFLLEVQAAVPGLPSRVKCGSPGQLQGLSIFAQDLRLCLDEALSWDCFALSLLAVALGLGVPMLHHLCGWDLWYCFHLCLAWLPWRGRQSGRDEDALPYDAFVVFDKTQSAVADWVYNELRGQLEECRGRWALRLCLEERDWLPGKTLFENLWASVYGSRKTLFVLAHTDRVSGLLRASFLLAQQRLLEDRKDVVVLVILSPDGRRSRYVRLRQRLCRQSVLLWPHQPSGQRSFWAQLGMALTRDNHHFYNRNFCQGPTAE

Compound	IC50 (human TLR9; [4])	IC50 (human TLR8; [5])	IC50 (human TLR7; [6])	IC50 (human TLR9; [7])	IC50 (human TLR8; [8])	IC50 (human TLR7; [9])	further results
CCCN(C)CC(=O)N1CCN(c2ccc3[nH]c(-c4cn5ncnc5c(C)c4C)c(C(C)C)c3n2)CC1 [Example 873]	–	–	–	–	–	–	IC50 (human TLR9; [1]): 12.8 µM; IC50 (human TLR8; [2]): 1.8 nM; IC50 (human TLR7; [3]): 3.1 nM
COc1cc(-c2[nH]c3ccc(C4CNC4)nc3c2C(C)C)cn2ncnc12 [Example 648]	2.07 µM	40 nM	2.1 nM	–	–	–	–
COc1cc(-c2[nH]c3ccc(C4CCC(NCC#N)C4)nc3c2C(C)C)cn2ncnc12 (stereo not drawn) [Example 716]	2.53 µM	6.7 nM	0.74 nM	–	–	–	–
Cc1c(-c2[nH]c3ccc(N4CCCC(NC5COC5)C4)nc3c2C(C)C)cn2ncnc2c1C (stereo not drawn) [Example 86]	–	–	–	> 50 µM	2.9 nM	7.5 nM	–
CC(C)c1c(-c2cc(CO)c3ncnn3c2)[nH]c2ccc(N3CCC(NCC(=O)N(C)C)CC3)nc12 [Example 85]	–	–	–	5.18 µM	5.8 nM	1.8 nM	–
COc1cc(-c2[nH]c3ccc(N4CCN(CC5CC5)CC4)nc3c2C(C)C)cn2ncnc12 [Example 120]	–	–	–	5.49 µM	0.6 nM	2.3 nM	–
Cc1c(-c2[nH]c3ccc(C4CCNCC4)nc3c2C(C)C)cn(C)c(=O)c1C [Example 519]	0.362 µM	12 nM	8.3 nM	–	–	–	–
Cc1c(-c2[nH]c3ccc(N4[C@H](C)CN(C(=O)CCN(C)C)C[C@H]4C)nc3c2C(C)C)cn2ncnc2c1C [Example 864]	–	–	–	–	–	–	IC50 (human TLR9; [1]): 5.69 µM; IC50 (human TLR8; [2]): 12 nM; IC50 (human TLR7; [3]): 1.5 nM
CC(C)c1c(-c2cn(C)c3ncccc23)[nH]c2ccc(C3CCC(NC4COC4)CC3)nc12 (stereo not drawn) [Example 184]	–	–	–	2.05 µM	18 nM	8.8 nM	–
CCN(CC(=O)N1C[C@H](C)N(c2ccc3[nH]c(-c4cn5ncnc5c(C)c4C)c(C(C)C)c3n2)C[C@H]1C)C(C)C [Example 912]	–	–	–	–	–	–	IC50 (human TLR9; [1]): 9.33 µM; IC50 (human TLR8; [2]): 2.2 nM; IC50 (human TLR7; [3]): 0.98 nM
Cc1c(-c2[nH]c3ccc(C4CCC(N(C5CC5)C5COC5)CC4)nc3c2C(C)C)cn2cnnc2c1C (stereo not drawn) [Example 239]	–	–	–	> 50 µM	181 nM	106 nM	–
Cc1c(-c2[nH]c3ccc(N4CCC(NCc5csnn5)CC4)nc3c2C(C)C)cn2ncnc2c1C [Example 56]	–	–	–	6.34 µM	1.1 nM	2 nM	–
COc1cc(-c2[nH]c3ccc(C4CCC(N5CCCC5)CC4)nc3c2C(C)C)cn2ncnc12 (stereo not drawn) [Example 192]	–	–	–	1.11 µM	19 nM	3.1 nM	–
Cc1c(-c2[nH]c3ccc(N4C[C@@H](C)N[C@@H](C)C4)nc3c2C(C)C)cn2ncnc2c1C [Example 976]	–	–	–	–	–	–	IC50 (human TLR9; [1]): 13.4 µM; IC50 (human TLR8; [2]): 0.96 nM; IC50 (human TLR7; [3]): 2.5 nM
COc1cc(-c2[nH]c3ccc(OCC4CCN(C5CCOCC5)CC4)nc3c2C(C)C)cn2ncnc12 [Example 591, 6-(3-isopropyl-5-((1-(tetrahydro-2H-pyran-4-yl)piperidin-4-yl)methoxy)-1H-pyrrolo[3,2-b]pyridin-2-yl)-8-methoxy-[1,2,4]triazolo[1,5-a]pyridine]	2.85 µM	7.7 nM	4.8 nM	–	–	–	–
Cc1c(-c2[nH]c3ccc(N4[C@@H]5CC[C@H]4CNC5)nc3c2C(C)C)cn2ncnc2c1C [Example 979]	–	–	–	–	–	–	IC50 (human TLR9; [1]): 4.29 µM; IC50 (human TLR8; [2]): 0.8 nM; IC50 (human TLR7; [3]): 1.1 nM
CC(C)c1c(-c2cn(C)c3ncccc23)[nH]c2ccc(N3CC(NC4CCOCC4)C3)nc12 [Example 36]	–	–	–	22.1 µM	> 3120 nM	> 3120 nM	–
CC(C)c1c(-c2cc(CO)c3ncnn3c2)[nH]c2ccc(C3CCC(NCCC(F)(F)F)CC3)nc12 (stereo not drawn) [Example 308]	–	–	–	3.97 µM	11 nM	11 nM	–
Cc1cc(-c2[nH]c3ccc(N4CCNCC4)nc3c2C(C)C)cn2ncnc12 [Example 88]	–	–	–	3.6 µM	91 nM	68 nM	–
COc1cc(-c2[nH]c3ccc(CCC4CN(CC(=O)N(C)C)C4)nc3c2C(C)C)cn2ncnc12 [Example 689]	0.433 µM	42 nM	11 nM	–	–	–	–
Cc1c(-c2[nH]c3ccc(N4C[C@H](C)N(C(=O)CCN(C)C)[C@@H](C)C4)nc3c2C(C)C)cn2ncnc2c1C [Example 761]	8.17 µM	14 nM	9 nM	–	–	–	–
Cc1cc2[nH]c(-c3cn4ncnc4c(C)c3C)c(C(C)C)c2nc1C1CCC(NC2COC2)CC1 (stereo not drawn) [Example 502]	2.9 µM	5.1 nM	0.79 nM	–	–	–	–
CC(C)c1c(-c2cn(C)c3ncncc23)[nH]c2ccc(N3CCNCC3)nc12 [Example 122]	–	–	–	7.25 µM	1.1 nM	1.7 nM	–

Compound	IC50 (human TLR9; [4])	IC50 (human TLR8; [5])	IC50 (human TLR7; [6])	IC50 (human TLR9; [7])	IC50 (human TLR8; [8])	IC50 (human TLR7; [9])	further results
CC(C)c1c(-c2cn(CCS(C)(=O)=O)c3ncccc23)[nH]c2ccc(C3CCC(NCC(=O)N(C)C)CC3)nc12 (stereo not drawn) [Example 257]	–	–	–	0.175 µM	25 nM	35 nM	–
COc1ncc(CN(Cc2cnc(OC)nc2)C2CCN(c3ccc4[nH]c(-c5cn6ncnc6c(C)c5C)c(C(C)C)c4n3)CC2)cn1 [Example 75]	–	–	–	> 50 µM	9.8 nM	18 nM	–
Cc1c(-c2[nH]c3ccc(N4CC5(CNC5)C4)nc3c2C(C)C)cn2ncnc2c1C [Example 740, 6-(3-isopropyl-5-(2,6-diazaspiro[3.3]heptan-2-yl)-1H-pyrrolo[3,2-b]pyridin-2-yl)-7,8-dimethyl-[1,2,4]triazolo[1,5-a]pyridine]	0.623 µM	5.1 nM	2.2 nM	–	–	–	–
CC(C)c1c(-c2ccc(=O)n(C)c2)[nH]c2ccc(C3CCNCC3)nc12 [Example 513]	0.545 µM	307 nM	319 nM	–	–	–	–
Cc1c(-c2[nH]c3ccc(N4CC5(CCN(CC(=O)N(C)C)CC5)C4)nc3c2C(C)C)cn2ncnc2c1C [Example 44]	–	–	–	3.37 µM	15 nM	12 nM	–
COc1cc(-c2[nH]c3ccc(C4CNCCO4)nc3c2C(C)C)cn2ncnc12 (stereo not drawn) [Example 676]	5.72 µM	2.5 nM	1 nM	–	–	–	–
Cc1c(-c2[nH]c3ccc(N4CCN(C)CC4=O)nc3c2C(C)C)cn2ncnc2c1C [Example 142]	–	–	–	> 50 µM	45 nM	107 nM	–
COc1cc(-c2[nH]c3ccc(C4CCN(CC(=O)N(C)C)CC4)nc3c2C(C)C)cn2ncnc12 [Example 537]	2.85 µM	7.1 nM	2.1 nM	–	–	–	–
Cc1c(-c2[nH]c3ccc(C4CN(C5CCOCC5)CCO4)nc3c2C(C)C)cn2ncnc2c1C (stereo not drawn) [Example 664]	38.5 µM	14 nM	22 nM	–	–	–	–
Cc1c(-c2[nH]c3ccc(N4CCN(C(=O)CN5CC(C)(C)C5)CC4)nc3c2C(C)C)cn2ncnc2c1C [Example 915]	–	–	–	–	–	–	IC50 (human TLR9; [1]): 11.1 µM; IC50 (human TLR8; [2]): 1 nM; IC50 (human TLR7; [3]): 2.3 nM
Cc1c(-c2[nH]c3ccc(C4CCC(NC5(CO)COC5)CC4)nc3c2C(C)C)cn2ncnc2c1C (stereo not drawn) [Example 484]	7.07 µM	11 nM	6.1 nM	–	–	–	–
CC(C)c1c(-c2cn(CC#N)c3ncccc23)[nH]c2ccc(C3CCC(NC4CCOCC4)CC3)nc12 (stereo not drawn) [Example 268]	–	–	–	0.578 µM	32 nM	94 nM	–
CCCN(C)CC(=O)N1C[C@H](C)N(c2ccc3[nH]c(-c4cn5ncnc5c(C)c4C)c(C(C)C)c3n2)C[C@H]1C [Example 894]	–	–	–	–	–	–	IC50 (human TLR9; [1]): 10.8 µM; IC50 (human TLR8; [2]): 0.89 nM; IC50 (human TLR7; [3]): 0.37 nM
CC(C)c1c(-c2cn(C)c3ncccc23)[nH]c2ccc(CCC3CN(Cc4c[nH]nn4)C3)nc12 [Example 704]	0.166 µM	13 nM	11 nM	–	–	–	–
COc1cc(-c2[nH]c3ccc(OC4CCN(C5CCOCC5)CC4)nc3c2C(C)C)cn2ncnc12 [Example 607, 6-(3-isopropyl-5-((1-(tetrahydro-2H-pyran-4-yl)piperidin-4-yl)oxy)-1H-pyrrolo[3,2-b]pyridin-2-yl)-8-methoxy-[1,2,4]triazolo[1,5-a]pyridine]	1.14 µM	2.6 nM	2.1 nM	–	–	–	–
Cc1cc(-c2[nH]c3ccc(C4CNCCO4)nc3c2C(C)C)cn(C)c1=O (stereo not drawn) [Example 669]	31.6 µM	5.6 nM	7.4 nM	–	–	–	–
Cc1c(-c2[nH]c3ccc(N4CCN(C(=O)CN(C)C(C)(C)C)C[C@@H]4C)nc3c2C(C)C)cn2ncnc2c1C [Example 905]	–	–	–	–	–	–	IC50 (human TLR9; [1]): 12 µM; IC50 (human TLR8; [2]): 0.82 nM; IC50 (human TLR7; [3]): 0.51 nM
COc1cc(-c2[nH]c3ccc(C4CCN(C5CCN(C)C5=O)CC4)nc3c2C(C)C)cn2ncnc12 (stereo not drawn) [Example 562]	6.48 µM	1.1 nM	1.9 nM	–	–	–	–
Cc1c(-c2[nH]c3ccc(C4CCC(N(C)CCS(C)(=O)=O)CC4)nc3c2C(C)C)cn2ncnc2c1C (stereo not drawn) [Example 425]	2.92 µM	0.5 nM	0.87 nM	–	–	–	–
Cc1c(-c2[nH]c3ccc(N4C[C@H](C)N(C(C)C)C[C@H]4C)nc3c2C(C)C)cn2ncnc2c1C [Example 841]	–	–	–	–	–	–	IC50 (human TLR9; [1]): 14.3 µM; IC50 (human TLR8; [2]): 28 nM; IC50 (human TLR7; [3]): 5.6 nM
Cc1cc(-c2[nH]c3ccc(C4CCN(C5CCN(C)C5=O)CC4)nc3c2C(C)C)cn2ncnc12 (stereo not drawn) [Example 561]	5.65 µM	3 nM	0.64 nM	–	–	–	–
COc1cc(-c2[nH]c3cc(C)c(C4CCC(N5CC(F)(F)C5)CC4)nc3c2C(C)C)cn2ncnc12 (stereo not drawn) [Example 338]	–	–	–	> 50 µM	1170 nM	81 nM	–
Cc1c(-c2[nH]c3ccc(N4CCN(C(=O)CN(C)CC(C)(C)O)CC4)nc3c2C(C)C)cn2ncnc2c1C [Example 949]	–	–	–	–	–	–	IC50 (human TLR9; [1]): 31 µM; IC50 (human TLR8; [2]): 1.6 nM; IC50 (human TLR7; [3]): 2.6 nM
